How the values were obtained:
[1] = molecular target: T1, Histidine-rich protein PFHRP-II (Plasmodium falciparum) (UniProt P05227); assay: In vitro inhibition of beta-hematin formation in Plasmodium falciparum at 100 uM; assay type: functional
T1 sequence (whole entry): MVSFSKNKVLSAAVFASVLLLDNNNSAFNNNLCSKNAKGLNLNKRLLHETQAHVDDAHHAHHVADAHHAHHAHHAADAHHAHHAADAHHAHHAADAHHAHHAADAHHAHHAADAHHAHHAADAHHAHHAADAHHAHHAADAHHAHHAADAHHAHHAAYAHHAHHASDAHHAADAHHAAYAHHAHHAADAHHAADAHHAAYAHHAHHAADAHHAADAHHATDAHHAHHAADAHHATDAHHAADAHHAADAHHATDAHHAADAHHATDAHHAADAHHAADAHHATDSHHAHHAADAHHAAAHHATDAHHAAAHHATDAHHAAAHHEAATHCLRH

Plasmodium falciparum [2] = assay: Growth inhibition against Plasmodium falciparum FcB1 at 200 nM; assay type: functional
Plasmodium falciparum [3] = assay: Inhibitory concentration against chloroquine-resistant Plasmodium falciparum FcB1; assay type: functional, organism-based
MRC5 [4] = assay: Cytotoxic effect on human diploid embryonic lung cell line (MRC-5) using the colorimetric MTT assay; assay type: functional
MRC5 [5] = assay: Selectivity index measured as CC50/IC50; assay type: functional, Homo sapiens
Plasmodium falciparum [6] = assay: Growth inhibitory concentration against chloroquine-resistant Plasmodium falciparum; assay type: functional, organism-based

Structure (SMILES): CCOCC(=O)N/N=C/C(=O)NCCCCCCCNc1ccnc2cc(Cl)ccc12
- inhibition [1]: 12%
- inhibition at 0.2 µM (Plasmodium falciparum [2]): 59%

Structure (SMILES): O=C(/C=N/Nc1ccccc1)NCCCCCCCNc1ccnc2cc(Cl)ccc12
- inhibition [1]: 0%
- inhibition at 0.2 µM (Plasmodium falciparum [2]): 0%

Structure (SMILES): COc1ccc2nc(N/N=C/C(=O)NCCCCCCCNc3ccnc4cc(Cl)ccc34)nnc2c1
- IC50 (Plasmodium falciparum [3]): 45 nM
- inhibition [1]: 28%
- CC50 (MRC5 [4]): 2500 nM
- SI (MRC5 [5]): 34
- IC50 (Plasmodium falciparum [6]): 73.7 nM

Structure (SMILES): Cc1ccc(N/N=C/C(=O)NCCCCCCCNc2ccnc3cc(Cl)ccc23)c(C)c1
- IC50 (Plasmodium falciparum [3]): 86 nM
- inhibition [1]: 8%

Structure (SMILES): O=C(/C=N/OCc1ccc([N+](=O)[O-])cc1)NCCCCCCCNc1ccnc2cc(Cl)ccc12
- IC50 (Plasmodium falciparum [3]): 5 nM
- inhibition [1]: 0%
- CC50 (MRC5 [4]): 1700 nM
- SI (MRC5 [5]): 27
- IC50 (Plasmodium falciparum [6]): 62.3 nM

Structure (SMILES): CCO/N=C/C(=O)NCCCCCCCNc1ccnc2cc(Cl)ccc12
- inhibition [1]: 0%
- inhibition at 0.2 µM (Plasmodium falciparum [2]): 11%

Structure (SMILES): CC(C)(C)O/N=C/C(=O)NCCCCCCCNc1ccnc2cc(Cl)ccc12
- inhibition [1]: 0%
- inhibition at 0.2 µM (Plasmodium falciparum [2]): 14%

Structure (SMILES): CN(/N=C/C(=O)NCCCCCCCNc1ccnc2cc(Cl)ccc12)c1ncccc1[N+](=O)[O-]
- inhibition [1]: 18%
- inhibition at 0.2 µM (Plasmodium falciparum [2]): 3%

Structure (SMILES): O=C(/C=N/O)NCCCCCCCNc1ccnc2cc(Cl)ccc12
- inhibition [1]: 6%
- inhibition at 0.2 µM (Plasmodium falciparum [2]): 10%

Structure (SMILES): C=CCO/N=C/C(=O)NCCCCCCCNc1ccnc2cc(Cl)ccc12
- IC50 (Plasmodium falciparum [3]): > 500 nM
- inhibition [1]: 3%

Structure (SMILES): CCN(CC)CCCC(C)Nc1ccnc2cc(Cl)ccc12 (centres undefined) [CHLOROQUINE]
- inhibition [1]: 55%
- CC50 (MRC5 [4]): 50000 nM

Structure (SMILES): O=C(/C=N/OCc1c(F)c(F)c(F)c(F)c1F)NCCCCCCCNc1ccnc2cc(Cl)ccc12
- inhibition [1]: 0%
- inhibition at 0.2 µM (Plasmodium falciparum [2]): 33%

Structure (SMILES): COC(=O)c1sccc1N/N=C/C(=O)NCCCCCCCNc1ccnc2cc(Cl)ccc12
- inhibition [1]: 11%
- inhibition at 0.2 µM (Plasmodium falciparum [2]): 13%

Structure (SMILES): O=C(/C=N/Nc1ccnc2cc(Cl)ccc12)NCCCCCCCNc1ccnc2cc(Cl)ccc12
- IC50 (Plasmodium falciparum [3]): 7 nM
- inhibition [1]: 0%
- CC50 (MRC5 [4]): 1400 nM
- SI (MRC5 [5]): 73
- IC50 (Plasmodium falciparum [6]): 19.3 nM

Structure (SMILES): O=C(/C=N/Nc1ccc(Cl)nn1)NCCCCCCCNc1ccnc2cc(Cl)ccc12
- IC50 (Plasmodium falciparum [3]): 180 nM
- inhibition [1]: 0%

Structure (SMILES): O=C(/C=N/Nc1nc(-c2cccs2)ns1)NCCCCCCCNc1ccnc2cc(Cl)ccc12
- inhibition [1]: 19%
- inhibition at 0.2 µM (Plasmodium falciparum [2]): 8%

Structure (SMILES): O=C(/C=N/Nc1cnc2ccccc2n1)NCCCCCCCNc1ccnc2cc(Cl)ccc12
- IC50 (Plasmodium falciparum [3]): 90 nM
- inhibition [1]: 0%

Structure (SMILES): O=C(/C=N/Nc1ccc(Cl)cc1Cl)NCCCCCCCNc1ccnc2cc(Cl)ccc12
- inhibition [1]: 12%
- inhibition at 0.2 µM (Plasmodium falciparum [2]): 0%

Structure (SMILES): Cc1cc(N/N=C/C(=O)NCCCCCCCNc2ccnc3cc(Cl)ccc23)nc2c1c(C)nn2C
- IC50 (Plasmodium falciparum [3]): 30 nM
- inhibition [1]: 0%
- CC50 (MRC5 [4]): 1800 nM
- SI (MRC5 [5]): 28
- IC50 (Plasmodium falciparum [6]): 63.9 nM

Structure (SMILES): Cc1cc(N/N=C/C(=O)NCCCCCCCNc2ccnc3cc(Cl)ccc23)nc(C)n1
- inhibition [1]: 19%
- inhibition at 0.2 µM (Plasmodium falciparum [2]): 0%

Structure (SMILES): O=C(/C=N/Nc1ccc(F)cc1F)NCCCCCCCNc1ccnc2cc(Cl)ccc12
- IC50 (Plasmodium falciparum [3]): 105 nM
- inhibition [1]: 0%

Structure (SMILES): CC(C)(C)c1ccc(N/N=C/C(=O)NCCCCCCCNc2ccnc3cc(Cl)ccc23)cc1
- inhibition [1]: 1%
- inhibition at 0.2 µM (Plasmodium falciparum [2]): 32%

Structure (SMILES): O=C(/C=N/NCc1ccccc1)NCCCCCCCNc1ccnc2cc(Cl)ccc12
- IC50 (Plasmodium falciparum [3]): 35 nM
- inhibition [1]: 0%
- CC50 (MRC5 [4]): 14600 nM
- SI (MRC5 [5]): 91
- IC50 (Plasmodium falciparum [6]): 161 nM

Structure (SMILES): O=C(/C=N/OCc1ccccc1)NCCCCCCCNc1ccnc2cc(Cl)ccc12
- inhibition [1]: 0%
- inhibition at 0.2 µM (Plasmodium falciparum [2]): 29%

Structure (SMILES): CC(C)(C)N/N=C/C(=O)NCCCCCCCNc1ccnc2cc(Cl)ccc12
- IC50 (Plasmodium falciparum [3]): 60 nM
- inhibition [1]: 0%

Structure (SMILES): O=C(/C=N/Nc1c(Cl)cc(C(F)(F)F)cc1Cl)NCCCCCCCNc1ccnc2cc(Cl)ccc12
- IC50 (Plasmodium falciparum [3]): 16 nM
- inhibition [1]: 7%
- CC50 (MRC5 [4]): 9200 nM
- SI (MRC5 [5]): 104
- IC50 (Plasmodium falciparum [6]): 88.7 nM

Structure (SMILES): O=C(/C=N/Nc1ccc([N+](=O)[O-])cc1[N+](=O)[O-])NCCCCCCCNc1ccnc2cc(Cl)ccc12
- IC50 (Plasmodium falciparum [3]): 13 nM
- inhibition [1]: 25%
- CC50 (MRC5 [4]): 11100 nM
- SI (MRC5 [5]): 235
- IC50 (Plasmodium falciparum [6]): 47.3 nM

Structure (SMILES): O=C(/C=N/Nc1ccc(F)c(Cl)c1)NCCCCCCCNc1ccnc2cc(Cl)ccc12
- IC50 (Plasmodium falciparum [3]): 200 nM
- inhibition [1]: 0%

Structure (SMILES): CO/N=C/C(=O)NCCCCCCCNc1ccnc2cc(Cl)ccc12
- inhibition [1]: 4%
- inhibition at 0.2 µM (Plasmodium falciparum [2]): 11%
